Data taken from the NIST ThermoML archive (doi:10.1021/je060271a).

Details: 323.15 K, Liquid, Vibrating tube method

CCCC(=O)OCC(COC(=O)CCC)(COC(=O)CCC)COC(=O)CCC [pentaerythritol tetrabutyrate]
Details | mass density [kg/m3]
30112 kPa | 1045
30149 kPa | 1045.1
30193 kPa | 1045.1
30232 kPa | 1045.2
30562 kPa | 1045.3
30601 kPa | 1045.3
30640 kPa | 1045.5
30680 kPa | 1045.4
30730 kPa | 1045.5
30771 kPa | 1045.5
30818 kPa | 1045.4
30850 kPa | 1045.6
30881 kPa | 1045.6
30918 kPa | 1045.7
30948 kPa | 1045.6
30979 kPa | 1045.6
31009 kPa | 1045.7
31047 kPa | 1045.6
31079 kPa | 1045.6
31110 kPa | 1045.6
31146 kPa | 1045.7
31178 kPa | 1045.9
31209 kPa | 1045.6
31247 kPa | 1045.7
31278 kPa | 1045.7
31310 kPa | 1045.8
31347 kPa | 1045.9
31379 kPa | 1045.9
31411 kPa | 1045.8
31450 kPa | 1045.8
31481 kPa | 1045.9
31513 kPa | 1045.9
31546 kPa | 1046
31584 kPa | 1045.9
31616 kPa | 1046
31649 kPa | 1046
31690 kPa | 1046
31725 kPa | 1046
31758 kPa | 1046
31791 kPa | 1046
31830 kPa | 1046.2
31863 kPa | 1046.2
31896 kPa | 1046.1
31936 kPa | 1046.2
31970 kPa | 1046.2
32003 kPa | 1046.3
32043 kPa | 1046.2
32151 kPa | 1046.3
32179 kPa | 1046.3
32219 kPa | 1046.4
32253 kPa | 1046.3
32288 kPa | 1046.4
32328 kPa | 1046.5
32362 kPa | 1046.4
32403 kPa | 1046.5
32437 kPa | 1046.5
32472 kPa | 1046.5
32506 kPa | 1046.5
32548 kPa | 1046.5
32583 kPa | 1046.6
32618 kPa | 1046.6
32660 kPa | 1046.7
32694 kPa | 1046.6
32737 kPa | 1046.6
32772 kPa | 1046.7
32808 kPa | 1046.9
32843 kPa | 1046.6
32886 kPa | 1046.8
32921 kPa | 1046.8
33152 kPa | 1046.9
33188 kPa | 1047
33232 kPa | 1046.9
33268 kPa | 1047
